In the supplement of paper PMC10307832:

Legend:
Assay in all cases: relative viability (nuclei count vs DMSO), 5 days (fraction); higher = more cells survive
Bortezomib + Navitoclax = compound: CC(C)C[C@H](NC(=O)[C@H](Cc1ccccc1)NC(=O)c1cnccn1)B(O)O [Bortezomib] + CC1(C)CCC(c2ccc(Cl)cc2)=C(CN2CCN(c3ccc(C(=O)NS(=O)(=O)c4ccc(N[C@H](CCN5CCOCC5)CSc5ccccc5)c(S(=O)(=O)C(F)(F)F)c4)cc3)CC2)C1 [Navitoclax] (partner 0.5 µM)
How it was run: (§1)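 One day after seeding in 1536-well plates, lung cancer cell lines were dosed by pin tool. Dosing was either single-drug or a fixed anchor-drug dose plus five library-drug doses (not always all listed) in √10 steps. After 5 days, nuclei were stained in one fix-and-stain step and counted on 4× images, and relative viability is the nuclei count of treated wells over that of vehicle wells, given as the median of duplicate plates.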

[1] = compound: CC1=CC(=NN1)NC2=CC(=NC(=N2)/C=C/C3=CC=CC=C3)N4CCN(CC4)C + CS(=O)(=O)N1CCN(Cc2cc3nc(-c4cccc5[nH]ncc45)nc(N4CCOCC4)c3s2)CC1 [Pictilisib] (partner 1 µM)
How it was run: as §1

[2] = compound: CC1=CC(=NN1)NC2=CC(=NC(=N2)/C=C/C3=CC=CC=C3)N4CCN(CC4)C + Nc1ncn([C@H]2C[C@H](O)[C@@H](CO)O2)c(=O)n1 [Decitabine] (partner 2 µM)
How it was run: as §1

Obatoclax + Navitoclax = compound: COC1=CC(c2cc3ccccc3[nH]2)=N/C1=C\c1[nH]c(C)cc1C [Obatoclax] + CC1(C)CCC(c2ccc(Cl)cc2)=C(CN2CCN(c3ccc(C(=O)NS(=O)(=O)c4ccc(N[C@H](CCN5CCOCC5)CSc5ccccc5)c(S(=O)(=O)C(F)(F)F)c4)cc3)CC2)C1 [Navitoclax] (partner 0.5 µM)
How it was run: as §1

Cell Line	relative viability (Bortezomib + Navitoclax; first compound 0.0002 µM)	relative viability (Bortezomib + Navitoclax; first compound 0.000632 µM)	relative viability (Bortezomib + Navitoclax; first compound 0.002 µM)	relative viability (Bortezomib + Navitoclax; first compound 0.006325 µM)	relative viability (Bortezomib + Navitoclax; first compound 0.02 µM)	relative viability ([1]; first compound 0.08 µM)	relative viability ([1]; first compound 0.253 µM)	relative viability ([1]; first compound 0.8 µM)	relative viability ([1]; first compound 2.53 µM)	relative viability ([1]; first compound 8 µM)	relative viability ([2]; first compound 0.08 µM)	relative viability ([2]; first compound 0.253 µM)	relative viability ([2]; first compound 0.8 µM)	relative viability ([2]; first compound 2.53 µM)	relative viability ([2]; first compound 8 µM)	relative viability (Obatoclax + Navitoclax; first compound 0.01 µM)	relative viability (Obatoclax + Navitoclax; first compound 0.03162 µM)	relative viability (Obatoclax + Navitoclax; first compound 0.1 µM)	relative viability (Obatoclax + Navitoclax; first compound 0.3162 µM)	relative viability (Obatoclax + Navitoclax; first compound 1 µM)
NCI-H1651	1.17	0.958	0.263	0.14	0.101	0.656	0.622	0.583	0.201	0.0876	0.356	0.597	0.613	0.322	0.132	1.04	0.991	0.968	0.507	0.224
NCI-H1666	0.832	1.08	0.848	0.211	0.196	0.494	0.389	0.358	0.325	0.176	0.574	0.682	0.749	0.719	0.584	0.839	1.31	0.865	0.388	0.277
NCI-H1734	0.86	0.872	0.662	0.112	0.0892	0.463	0.422	0.456	0.214	0.122	0.515	0.531	0.544	0.362	0.16	0.745	0.841	–	0.723	0.668
NCI-H1755	0.975	0.979	0.917	0.269	0.165	0.418	0.351	0.419	0.195	0.0971	0.707	0.65	0.733	0.663	0.428	0.974	0.966	1	0.951	1.04
NCI-H1792	0.622	0.582	0.638	0.633	0.582	0.268	0.259	0.293	0.205	0.0778	0.435	0.556	0.377	0.332	0.0377	0.647	0.586	–	0.626	0.561
NCI-H1793	0.418	0.463	0.599	0.409	0.149	0.229	0.235	0.306	0.293	0.116	0.488	0.554	0.43	0.127	0.123	0.337	0.291	0.51	0.422	0.47
NCI-H1915	0.676	0.764	0.799	0.0915	0.0811	0.948	0.674	0.885	0.571	0.289	0.241	0.273	0.261	0.238	0.168	0.766	0.638	0.711	0.76	0.785
NCI-H1944	1.06	0.992	1.12	1.05	0.887	0.317	0.34	0.348	0.281	0.223	0.4	0.485	0.478	0.351	0.252	0.97	1.01	1.05	1.05	1.08
NCI-H1975	1.05	1.05	0.315	0.136	0.133	0.284	0.307	0.25	0.128	0.0893	0.377	0.406	0.344	0.314	0.154	1.18	1.1	0.975	0.943	1.01
NCI-H1993	0.94	0.982	1.01	0.52	0.48	0.817	–	0.744	0.808	0.599	0.526	0.598	0.616	0.47	0.445	1.04	0.816	1.03	0.867	0.982
NCI-H2009	1.16	1.1	1.15	0.0798	0.0607	0.754	0.415	0.781	0.25	0.142	0.357	0.377	0.444	0.282	0.151	1.13	1.23	1.15	1.17	0.258
NCI-H2023	0.967	0.994	0.936	0.17	0.0898	0.203	0.266	0.197	0.0664	0.0528	0.22	0.221	0.231	0.0739	0.0699	0.96	1.02	0.911	0.906	0.612
NCI-H2085	1.18	1.14	1.05	0.248	0.211	0.437	0.39	0.431	0.18	0.236	0.541	0.507	0.56	0.336	0.298	1.14	1.11	1.13	0.704	0.728
NCI-H2087	0.991	1.02	0.509	0.0888	0.0686	0.828	0.542	0.877	0.447	0.141	0.294	0.193	0.265	0.0921	0.0912	0.9	0.857	0.866	0.438	0.196
NCI-H2126	0.857	0.844	0.827	0.848	0.327	0.499	0.461	0.522	0.482	0.338	0.602	0.595	0.55	0.561	0.27	0.837	0.839	0.875	0.887	0.908
NCI-H2170	0.425	0.548	0.6	0.169	0.172	0.283	0.301	0.257	0.166	0.136	0.452	0.51	0.467	0.373	0.251	0.618	0.554	0.606	0.609	0.577
NCI-H2347	0.513	0.847	0.651	0.197	0.193	0.63	0.342	0.777	0.417	0.333	0.606	0.636	0.561	0.549	0.394	0.724	0.781	0.698	0.602	0.877
NCI-H2405	0.769	–	0.134	0.0865	0.113	0.473	0.32	0.452	0.179	0.133	0.758	0.618	0.687	0.615	0.171	0.82	1.06	–	0.862	0.857
NCI-H3122	1.01	1.04	1.06	0.625	0.167	0.588	0.345	0.659	0.428	0.291	0.372	0.364	0.46	0.379	0.298	1.02	1.01	1.04	1.04	1.02
PC-3 [JPC-3]	0.783	0.842	0.724	0.44	0.139	0.763	0.721	0.706	0.648	0.579	0.807	0.882	0.806	0.834	0.543	0.853	0.682	0.801	0.796	0.668
PC-14	1.02	0.941	0.992	0.0667	0.0697	0.651	0.635	0.56	0.199	0.0209	0.179	0.2	0.253	0.0601	0.0537	0.968	1.07	0.962	0.847	0.128
RERF-LC-KJ	1.01	1.19	0.593	0.247	0.244	0.593	0.519	0.495	0.27	0.168	0.73	0.677	0.695	0.272	0.242	1.04	0.845	0.729	0.875	0.319
SK-LU-1	0.781	0.83	0.903	0.0872	0.0835	0.595	0.587	0.56	0.285	0.0825	0.594	0.661	0.618	0.396	0.183	0.753	0.871	0.424	0.222	0.216
SK-MES-1	1.24	1.28	1.22	0.198	0.146	0.341	0.357	0.279	0.168	0.134	0.402	0.379	0.331	0.187	0.11	1.28	1.16	1.22	1.03	0.64
SW 1573	0.849	1.12	0.928	0.0531	0.0615	0.478	0.478	0.393	0.179	0.0655	0.51	0.652	0.451	0.111	0.0605	1.04	0.788	0.989	0.937	0.267
UMC-11	0.288	0.281	0.315	0.12	0.101	0.79	0.813	0.606	0.158	0.108	0.722	0.609	0.562	0.282	0.209	0.315	0.311	0.316	0.299	0.111
